Assay results published in US20110091540A1, “POLYMERIC COMPOSITIONS AND THEIR METHOD OF USE IN COMBINATION WITH ACTIVE AGENTS” (priority 2007, published 2011).

Assay: Clinical trial of Example 11: fecal metal excretion and stool weight
Type: in vivo, human
Details: groups receiving mannitol with CLP; passage through the entire gastrointestinal tract
Procedure: For this clinical trial, an open-label, non-randomized, multiple-dose study in eighteen healthy subjects divided into six groups of three subjects in each group was conducted. Subjects were placed into one of six groups on day six, based upon the previous five days of stool weights, so that the average daily stool weight is approximately equal across groups.
CLP (milled) with and without mannitol (Groups 1, 2, 5 and 6) was in size 00 HPMC capsules that are uncoated. CLP (beads) and mannitol alone were supplied in bottles so that they may put into size 00 HPMC capsules (Groups 3 and 4).
CLP was administered according to treatment assignment (Groups 1, 2, 3, and 4) in a fasted state, at least one hour prior to each of four meals/snack and administered with water. Subjects were restricted from additional fluids for one hour pre and post dose. For Groups 5 and 6, CLP is administered in a fed state, thirty minutes following the end of a meal and evening snack, administered with water and without any fluid restriction.
Each sample was individually weighed and the color and consistency of the stool noted. The weights were added together to determine the total fecal weight resulting from each day's intake. The entire weight of stool between the color markers was also totaled separately for both the baseline period and the experimental period. […]

In the case of `OC[C@@H](O)[C@@H](O)[C@H](O)[C@H](O)CO` [mannitol], the “Effect of mannitol on fluid removal (stool weight)” value is reported as “does not increase fluid removal and may decrease fluid removal”.
